Marks after values point to notes of the source that are not given here.

Type in all cases: in vivo
Series [1] has as its system Arabidopsis thaliana. The series is described as follows: Salt stress (50 mM NaCl) growth assay of hydroponically grown Arabidopsis thaliana after 24 h root treatment. Conditions: for Fresh weight / RGR (relative growth rate) / S.I (sensitivity index) / % reduction RGR: 2.5 mM treatment 24 h; for Fresh weight: aerial part; for Effect on growth and tolerance to salt stress (in words): 2.5 mM treatment, 50 mM NaCl; for S.I (sensitivity index) / % reduction RGR: 7 days with 50 mM NaCl; for S.I (sensitivity index): S.I = DWs − DWc/DWc; for % reduction RGR: relative to control conditions. As to the method: The conditions described below were used as the base for all examples included below. The growing conditions, such as the nutrient solution and the substrate used have been optimized to perform this type of experiments. Likewise, the dose of NaCl used has been optimized for this type of experiments since 50 mM makes it possible to evaluate if a treatment is capable of increasing tolerance to salinity (Jiménez-Arias et al., 2015. Environmental and Experimental Botany 120, 23-30).
A hydroponic culture system was used for the cultivation of the Arabidopsis thaliana plants necessary for the assays. This system was established in hydroponics trays with 1.9 L capacity (Araponics®) wherein 18 plants were grown per container. A mixture of river sand with two different granulometries was used as physical substrate. The seeds were sowed in seed-holders, which were deposited during one week in a small greenhouse consisting of a high-density polyethylene tray with river sand (washed siliceous sand, with medium granulometry) with sterile distilled water covered with a transparent plastic sheet which was deposited in a growth chamber at 22±2° C., with a photoperiod of 16 hours of light (100-110 μmol m-2 s-1 of PAR) and with 100% relative humidity. After one week, the seed-holders with the seedlings were transferred to the hydroponics trays in the same photoperiod and light intensity conditions but with 60-70% of relative humidity. The seedlings were maintained without aeration during the first week, after this the solution (Table 1) was generously aerated using aeration pumps and was renewed every 7 days.
In this way, 21-day old plants were treated during 24 hours in nutrient solution enriched with a concentration of 2.5 mM of alanine. Subsequently, the plants were deposited in normal nutrient solution for 24 hours and they later grew for 7 days in nutrient solution with or without a supply of 50 mM of NaCl. This experiment was repeated twice, using 12 plants per experiment, with the value shown in table 2 being the average of 24 plants for each one of the conditions.
Subsequently, the wet weight of the aerial part of the plants was determined.
21-day old plants were treated during 24 hours in nutrient solution enriched with a concentration of 2.5 mM of pyroglutamic acid or pipecolinic acid. Subsequently, the plants were deposited in normal nutrient solution for 24 hours and they later grew for 7 days in nutrient solution with or without a supply of 50 mM of NaCl. This experiment was repeated twice, using 12 plants per experiment, with the value shown in table 2 being the average of 24 plants for each one of the conditions.
The plants were deposited in nutrient solution enriched with one of the compounds indicated above for 24 hours and they later grew for 7 days in nutrient solution with a supply of 50 mM of NaCl. As control, the plants grown on nutrient solution and NaCl were used. This experiment was repeated twice, using 12 plants per experiment, with the value shown in table 2 being the average of 24 plants for each one of the conditions.
Two measurements were used in order to illustrate the defence to salt stress. First, the values for the sensitivity index (S.I) described by Saadallah et al. (2001, Agronomie 21, 627-634) is shown.
The greater the negative value of the S.I., the greater the negative effect of salinity on the plant. The second measurement is a percentage of reduction in the relative a growth rate of the plant subjected to conditions of salt stress.

For series [2], the system named is Solanum lycopersicum (tomato). As to the kind of experiment: Salt stress growth assay of hydroponic tomato plants after 24 h root treatment. Conditions: 2.5 mM; for Decrease in growth in saline conditions with respect to growth in the control solution: 7 days in NaCl solution, fresh weight; for Increase in tolerance compared with the proline treatment / Increase in tolerance compared with the control: saline conditions; for Increase in tolerance compared with the proline treatment: versus proline 2.5 mM; for Increase in tolerance compared with the control: versus reference group. As to the method:
As an example, tomato (Solanum lycopersicum) of the variety Realeza pear was used. […] From the first day, the solution was generously aerated by air pumps (30 min per day). The plants were maintained during two days with this proportion of solution and distilled water, and then they were removed from the medium and placed, under the same conditions, in plastic containers during 24 hours with the different treatments in distilled water (table 5): After 24 hours, the plants were again introduced in the trays with the same proportion of distilled water/nutrient solution stated above and they were maintained like this for 48 hours. […] Then, the growth of treated and untreated plants was compared, in normal conditions and salinity conditions. For the statistical analysis, the data collected was subjected to the normality test of the Kolmogorov-Smirnov test with the Lilliefors correction. Levene's test was used to verify the homoscedasticity of the data. As the data behaved following a normal distribution, its measurements were compared by one-way ANOVA and the significant differences were calculated using the Bonferroni post hoc test. The statistical analyses were performed with the SSPS computer package, version 20 for Windows.

Series [3] deals with Solanum lycopersicum (tomato). The series is described as follows: Drought (water deficit) assay of tomato in greenhouse conditions. Conditions: four root treatments at 2.5 mM, after 10 days of drought; for Net photosynthesis: versus drought reference. As to the method: The crop used was tomato (Solanum lycopersicum) of the “Gransol” capa negra variety. The experiment was performed in a glass greenhouse with four tables measuring 10 metres in length by 2 metres in width. Drip irrigation was used, supplied by self-compensated drippers to control the flow of water at all times.
5-week old seedings were transplanted to 2-litre capacity pots using a mixture of peat and river sand to facilitate drainage. In total, 120 tomato plants were used. Four treatments were performed on 40 plants after the transplant (with 15 days between each treatment), adding 50 ml of a 2.5 mM concentration of Pyroglutamic to each pot.
Another 40 plants were treated via root applications using 2.5 mM of pipecolinic acid. The remaining plants randomly distributed throughout the greenhouse were treated with distilled water by way of control. The drought assay commenced on completing the four treatments, which was performed by removing the dripper from the 20 plants randomly chosen for each one of the treatments. The plants were deprived of water for 10 days.
The relative water content of the leaf was estimated after 10 days of drought for each one of the treatments, in control conditions and drought conditions, using 15 leaves. The following formula was used for this:
R.W.C(%)/=[(Fw−Dw)/(Tw−Dw)]×100
With Fw: fresh weight; Dw: dry weight; Tw: turgor weight. RWC is the measurement most commonly used to estimate the possible water deficit a plant leaf has.
Furthermore, photosynthesis was estimated with the “Lc-pro sd” system (ADC Bioscientific). To do this, the tomato leaves were stimulated with a light source at 1000 μmol m-2 s-1, with this light intensity being previously estimated to achieve the maximum photosynthesis in our crop and conditions. To do this, the parameters of net photosynthesis (A) and evapotranspiration (E) were determined, calculating with them the efficiency in water use (A/E) as described by Lambers et al. (2008. Plant Physiological Ecology. 2nd edition. Springer, New York). The measurements were taken after 10 days of assay from six plants for each one of the treatments.
The data of the different variables were subjected to the normality test using the Kolmogorov-Smirnov test with the Lilliefors correction. Levene's test was used to verify the homoscedasticity of the data. As the data behaved following a normal distribution, its measurements were compared by one-way ANOVA and the significant differences were calculated using the Bonferroni post hoc test. The statistical analyses were performed with the SSPS computer package, version 20 for Windows.

[4] abbreviates: 7 days in nutrient solution with 50 mM NaCl (saline conditions).
Setting [5] is: 7 days in nutrient solution without NaCl (optimal conditions).
[6] abbreviates: 7 days with 50 mM NaCl (saline conditions).
Setting [7] is: 7 days without NaCl (optimal conditions).

As for `C[C@H](N)C(=O)O` [Alanine, alanine, reference compound], the Fresh weight is listed as 36 ± 2 mg plant in series [1] (setting [4]) and 142 ± 8 mg plant in series [1] (setting [5]). Further, the entries for the “RGR (relative growth rate)” value in series [1] (setting [6]) and in series [1] (setting [7]) were 0.11** and 0.58, respectively. In addition, in series [1], the “Effect on growth and tolerance to salt stress (in words)” value (“Effect on growth and tolerance” below) is “not capable of promoting growth, nor increasing tolerance to salinity”.
Consider `O=C(O)[C@@H]1C[C@@H](O)CN1` [Hydroxyproline, hydroxyproline, reference compound], for which, in series [1], the “S.I (sensitivity index)” value is listed as −0.25** and the “% reduction RGR” value is on record as 24.34** %. In addition, the “Decrease in growth in saline conditions with respect to growth in the control solution” value (from here on “Decrease in growth in saline conditions”) in series [2] is 17%. Besides, the “Decrease in growth under control conditions with respect to the reference” value in series [2] (7 days, control solution without salt, plant weight) was determined as 35%.
Consider `O=C(O)C1CCCCN1` (stereo not shown) [Pipecolinic acid, pipecolinic acid], for which the Fresh weight in series [1] (setting [4]) worked out at 133.9 ± 21 mg plant. Moreover, the Fresh weight in series [1] (setting [5]) was 145.9 ± 22 mg plant. The “RGR (relative growth rate)” value in series [1] (setting [6]) is 0.45. Besides, in series [1], the “S.I (sensitivity index)” value is given as −0.07**; the “% reduction RGR” value is reported as 8.12** %; the “Effect on growth and tolerance” value was “effect on the increased tolerance to salt stress is proven”. Further, the “RGR (relative growth rate)” value in series [1] (setting [7]) is reported as 0.46. Moreover, in series [2], the “Decrease in growth in saline conditions” value came out at 7%, the “Increase in tolerance compared with the proline treatment” value is 83% and the “Increase in tolerance compared with the control” value was 78%. In addition, in series [3], the “Decrease in relative water content of the leaf with respect to its control” value came out at 5.1% and the Net photosynthesis result is “greater than the drought reference plants”.
For the compound `O=C(O)[C@@H]1CCCN1` [Proline, proline], the “Decrease in growth in saline conditions” value in series [2] turned out to be 42%.
With `O=C1CC[C@@H](C(=O)O)N1` [Pyroglutamic acid, pyroglutamic acid], in series [1] (setting [4]), the Fresh weight was found to be 170.4 ± 15 mg plant. Besides, in series [1] (setting [5]), the Fresh weight came out at 183.9 ± 15 mg plant. Also, the “RGR (relative growth rate)” value in series [1] (setting [6]) was 0.49. Besides, in series [1], the “S.I (sensitivity index)” value is −0.1**; the “% reduction RGR” value is given as 10.22** %; the “Effect on growth and tolerance” value is “effect on the increased tolerance to salt stress is proven”. In addition, the “RGR (relative growth rate)” value in series [1] (setting [7]) came to 0.56. For the same compound, in series [2], the “Decrease in growth in saline conditions” value is recorded as 9%, the “Increase in tolerance compared with the proline treatment” value is recorded as 78% and the “Increase in tolerance compared with the control” value is recorded as 72%. In addition, in series [3], the “Decrease in relative water content of the leaf with respect to its control” value was “did not show this decrease” and the Net photosynthesis entry is recorded as “greater than the drought reference plants”.

These data come from patent US20190159449A1, “USE OF NON-PROLINE CYCLIC AMINO ACIDS TO INCREASE THE TOLERANCE OF PLANTS TO CONDITIONS OF OSMOTIC STRESS” (CONSEJO SUPERIOR DE INVESTIGACIONES CIENTÍFICAS (CSIC), priority 2016, published 2019).
